# Experiment: gradient 5% acetonitrile 3 min, to 50% in 2 min, to 85% in 15 min, held 3 min, 100 µL/min
# Conditions: column: Zorbax Extend-C18 2.1 x 50 mm; eluents: water / acetonitrile, 0.1% formic acid
# How it was run: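 Standards, all pure, were combined into mixtures of ~100 molecules and run at 100 μL/min on a Zorbax Extend-C18 column (2.1 × 50 mm, 1.8 μm) with water and acetonitrile, each containing 0.1% formic acid. A coupled quadrupole time-of-flight mass spectrometer operated in positive and negative ionization mode. Retention time values come from computationally picked adduct peaks, each inspected manually.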
row,SMILES,RP-LC retention time
1,CCOc1ccc(N(CC)C(=O)c2nc(C)n(C3CCN(S(C)(=O)=O)CC3)c2C)cc1,640 s
2,COc1cc(C(=O)NC2C=CS(=O)(=O)C2)cc(OC)c1OC (stereo unspecified),615 s
3,Cc1nc2cc(-c3noc(-c4cncc(Br)c4)n3)ccc2o1,1060 s
4,O=C(Cc1nnc(-c2cnccn2)o1)NCc1ccccc1,635 s
5,CC1CCCCN1S(=O)(=O)c1ccc2nc(N3CCN(c4cccc(Cl)c4)CC3)ccc2c1 (stereo unspecified),1250 s
6,CC(C)c1ccc(-c2noc(N3CCC(C(=O)N4CCCCCC4)CC3)n2)cc1,1180 s
7,Cc1ccc2[nH]cc(CCN3CC(C(=O)N4CCc5ccccc5C4)CC3=O)c2c1 (stereo unspecified),698 s
8,CC(C)(C)OC(=O)N1CCN(c2ncc(C(=O)NCc3ccccc3)c(N)n2)CC1,743 s
9,Cc1c(-c2noc(-c3ccc4c(c3)OCO4)n2)nnn1Cc1ccccc1,1010 s
10,Cc1ccccc1CC(=O)N1CCC2(CC1)NC(=O)c1cc(F)ccc1N2C,787 s
11,Cc1ccc(NC(=O)Cc2csc3nc(-c4ccc(C)c(C)c4)cn23)c(C)c1,930 s
12,COc1ccc(NC(=O)Cn2nc3n(c2=O)CCCCC3)c(OC)c1,678 s
13,CC(=O)Nc1cccc(C2OC(c3cc(Br)ccc3OC(C)=O)=NN2C(C)=O)c1 (stereo unspecified),828 s
14,CCN1C(=O)C(C)(C(=O)Nc2ccccc2C)Oc2cccnc21 (stereo unspecified),876 s
15,COc1cc(OC)c(NC(=O)N2CCOc3ccccc32)cc1Cl,1010 s
16,COc1ccc(-c2cc3ccccc3[nH]2)cc1,1100 s
17,O=C(NCc1ccc(Cl)cc1)c1nc(-c2ccncc2)cs1,687 s
18,CCn1nccc1-c1cccc(-c2noc(-c3cccc(OC)c3OC)n2)c1,1170 s
19,Cc1nnc(-c2cc(NC(=O)c3ccc(F)cc3Cl)c(C)s2)o1,865 s
20,COc1ccc2nc(NC3=NCN(Cc4cccnc4)CN3)nc(C)c2c1,560 s
21,COc1cccc(CNC(=O)c2c(C)sc3ccn(CC(C)C)c(=O)c23)c1,960 s
22,CCCCNC(=O)C1CCN(C(=O)CCc2c(C)[nH]c(C(=O)OCC)c2C)CC1,748 s

row,SMILES,RP-LC retention time
1,COc1ccc(NC(=O)C2CC(=O)N(c3n[nH]c4ccccc34)C2)cn1 (stereo unspecified),646 s
2,CC(C)Oc1ccc(-c2noc(CCn3nc(-c4ccc5c(c4)OCO5)ccc3=O)n2)cc1,1020 s
3,COc1ccc(CCNC(=O)C2CCN(S(C)(=O)=O)c3ccccc3O2)cc1 (stereo unspecified),828 s
4,CCOc1cccc(C2c3[nH]c4ccccc4c3CCN2C(=O)c2ccncc2)c1 (stereo unspecified),959 s
5,COCCN1C(=O)Cc2ccccc2C1C(=O)NCc1ccccc1Cl (stereo unspecified),775 s
6,Cc1ccc(CNC(=O)c2cc3n(n2)CCCN(Cc2cccc(F)c2)C3=O)o1,853 s
7,COc1cccc(OCC(O)CN2CCN(c3ccc(Cl)cc3)CC2)c1 (stereo unspecified),724 s
8,CCc1ccc(-c2cn3ccn(-c4ccc(OC)c(OC)c4)c(=O)c3n2)cc1,840 s
9,Cn1nc(CC(=O)Nc2ccccc2Br)c2ccccc2c1=O,774 s
10,Cc1ccc(C(=O)N2CCC3(CC2)NC(=O)c2cc(F)ccc2N3C)cc1,776 s
11,Cc1nc2ccn(Cc3ccco3)c(=O)c2cc1C(=O)NCc1ccco1,718 s
12,Cc1ccc(NC(=O)C2CC(=O)N(CCc3c[nH]c4ccc(C)cc34)C2)cc1 (stereo unspecified),843 s
13,CCCN(CCC)CCNC(=O)C1CCC(=O)N(c2ccc(OC)cc2)C1c1ccc(F)cc1 (stereo unspecified),649 s
14,COCCc1noc(C2Cc3ccccc3N2C(=O)NCc2ccc(C)cc2)n1 (stereo unspecified),973 s
15,CCCCn1cc(S(=O)(=O)NCc2ccccc2C(F)(F)F)c2cccnc21,1040 s
16,CC(C)NC(=O)c1ccc(OCC2CCN(C(=O)Cc3cccs3)CC2)cc1,822 s
17,COc1cccc(CNC(=O)N2CCCC(C)(C(=O)NCc3ccc(F)cc3)C2)c1 (stereo unspecified),815 s
18,COc1ccc(NC(=O)c2[nH]c3cc(C)sc3c2CN2CCCC2)c(C)c1,708 s
19,Cc1cc(N2CCN(C)CC2)nc2ccc(NC(=S)N3CCN(c4ccc(Cl)cc4)CC3)cc12,645 s
20,O=C(NCCN1CCCC1)c1ccc(-c2noc(-c3ccccc3)n2)s1,673 s
21,O=C(O)c1nnn(-c2ccc3c(c2)CCC3)c1-c1ccncc1,662 s
22,COc1cc(C(=O)Nc2nc(-c3ccc(F)cc3)cs2)cc(OC)c1OC,1040 s

row,SMILES,RP-LC retention time
1,COC1CCC12CCN(C(=O)c1cccs1)CC2 (stereo unspecified),748 s
2,Cc1ccc(NC(=O)N2CCCC(Cn3cnc4cccnc43)C2)c(C)c1 (stereo unspecified),680 s
3,COc1c(C(=O)NCc2ccc(C)o2)sc2ccc(Cl)cc12,1120 s
4,O=C1COc2ccc(S(=O)(=O)N3CCC(C(=O)NCc4cccs4)CC3)cc2N1,702 s
5,CCCCn1c(=O)c2ccccc2n(Cc2nc(-c3cccc(Br)c3)no2)c1=O,1280 s
6,O=C(Cn1cccc(S(=O)(=O)N2CCOCC2)c1=O)N1CCc2ccccc21,667 s
7,Cn1nc(-c2nc(Cc3ccccc3)no2)c2c1CCN(C(=O)C1CCCO1)C2 (stereo unspecified),777 s
8,COc1ccc(N2C=C(C(=O)N3CCCC3)S(=O)(=O)c3ccccc32)cc1Cl,808 s
9,CN(C1CCc2nn(CC3CC3)c(=O)n2CC1)S(=O)(=O)c1ccccc1Cl (stereo unspecified),796 s
10,CC(=O)c1ccc(NC(=O)C2CC(=O)N(c3ccc4c(c3)CCN4C(C)=O)C2)cc1 (stereo unspecified),670 s
11,CC(C)Oc1ccc(C(=O)O)cc1,823 s
12,CCN(CC)CCCNC(=O)c1cc2n(n1)CC(C)(C(=O)NCc1ccccc1)N(C)C2=O (stereo unspecified),581 s
13,COc1ccc(Cl)c(Cn2c(NCC3CCCO3)nc3c2c(=O)n(C)c(=O)n3C)c1 (stereo unspecified),801 s
14,CCCCC(=O)Nc1nc(-c2ccc3c(c2)N(C)C(=O)CO3)c(C)s1,925 s
15,Cc1cccc(NS(=O)(=O)c2ccc(-c3c(C)noc3C)cc2)c1C,997 s
16,COc1cccc(NC(=O)Nc2c(-c3ccc(F)cc3)nc3ccccn23)c1,677 s
17,Cc1cc(N2CCCC2)n2nc(CN3CCN(c4ccc(F)cc4)CC3)nc2n1,634 s
18,Cc1ccc(-c2ccc(=O)n(CCCC(=O)Nc3ccc(-c4ccc(=O)[nH]n4)cc3)n2)cc1,678 s
19,CCn1c(=O)c(C)nc2cc(-c3noc(-c4cc(OC)cc(OC)c4)n3)ccc21,894 s
20,COc1ccc2c(c1)C1(CCN(S(=O)(=O)c3ccc(OC)c(OC)c3)C1)C(=O)N2 (stereo unspecified),757 s
21,Cc1cccc(NC(=O)NCC(c2cccnc2)c2c[nH]c3ccccc23)c1C (stereo unspecified),661 s
22,O=C(CN1C(=O)CN(C(=O)Nc2ccccc2)c2ccccc21)NCc1ccccn1,587 s

# From the METLIN SMRT retention time set (Domingo-Almenara et al. 2019)
